# Test results as given in PubChem BioAssay AID212 (DTP/NCI, 2004).
# Several values for one entry are separate records, joined by “and”; a condition that tells them apart may be missing. Equal values may be shown once. Inconclusive results are not listed.
# Tested on: BDF1 mice, colon carcinoma 38 sc, T/C %
# Experiment: NCI In Vivo Anticancer Drug Screen. Data for tumor model Colon Carcinoma 38 (subcutaneous) in B6D2F1 (BDF1) mice
# Summary of the method: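 Mice with transplanted tumors are treated with compound or vehicle. Survival or tumor size is then measured in both groups. The ratio of treated to control gives the reported figure.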
# [1] = endpoint: median tumor weight (est.), dose: 50.0 mg/kg/injection, schedule: Q07DX002 (ip), vehicle: Klucel (hydroxypropylcellulose) (HPC), higher = larger tumour
# [2] = endpoint: median tumor weight (est.), dose: 200.0 mg/kg/injection, schedule: Q07DX002 (ip), vehicle: Klucel (hydroxypropylcellulose) (HPC), higher = larger tumour
structure (smiles),measurement,setting,value
Cc1cc(Nc2ccc3c(c2)OCO3)c2cc3c(cc2n1)OCO3,T/C,[1],86 % of control
same,T/C,"endpoint: median tumor weight (est.), dose: 100.0 mg/kg/injection, schedule: Q07DX002 (ip), vehicle: Klucel (hydroxypropylcellulose) (HPC), higher = larger tumour",85 % of control
same,T/C,[2],36 % of control
CCCCNC(C)[C@]1(O)Cc2c(O)c3c(c(O)c2[C@@H](OC2CC(N)C(O)C(C)O2)C1)C(=O)c1c(OC)cccc1C3=O (stereo partly drawn),T/C,"endpoint: median survival time, dose: 16.0 mg/kg/injection, schedule: Q07DX002 (sc), vehicle: saline, higher = longer survival",113 % of control
same,T/C,"endpoint: median survival time, dose: 26.0 mg/kg/injection, schedule: Q07DX002 (sc), vehicle: saline, higher = longer survival",151 % of control
same,T/C,"endpoint: median tumor weight (est.), dose: 3.38 mg/kg/injection, schedule: Q07DX002 (ip), vehicle: saline, higher = larger tumour",89 % of control
same,T/C,"endpoint: median tumor weight (est.), dose: 6.75 mg/kg/injection, schedule: Q07DX002 (ip), vehicle: saline, higher = larger tumour",88 % of control
same,T/C,"endpoint: median tumor weight (est.), dose: 13.5 mg/kg/injection, schedule: Q07DX002 (ip), vehicle: saline, higher = larger tumour",81 % of control
O=C(CN1CCOCC1)Nc1nc(-c2ccc(Cl)cc2)cs1,T/C,"endpoint: median tumor weight (est.), dose: 50.0 mg/kg/injection, schedule: Q07DX002 (ip), vehicle: DMSO, higher = larger tumour",224 % of control
same,T/C,"endpoint: median tumor weight (est.), dose: 100.0 mg/kg/injection, schedule: Q07DX002 (ip), vehicle: DMSO, higher = larger tumour",292 % of control
same,T/C,"endpoint: median tumor weight (est.), dose: 200.0 mg/kg/injection, schedule: Q07DX002 (ip), vehicle: DMSO, higher = larger tumour",247 % of control
same,T/C,"endpoint: median tumor weight (est.), dose: 400.0 mg/kg/injection, schedule: Q07DX002 (ip), vehicle: DMSO, higher = larger tumour",234 % of control
CS(=O)(=O)OCCN(CCOS(C)(=O)=O)c1ccc(C=Nc2ccc(-c3csc(COc4ccccc4)n3)cc2)cc1,T/C,[1],158 % of control
same,T/C,[2],97 % of control and 100 % of control
same,T/C,"endpoint: median tumor weight (est.), dose: 400.0 mg/kg/injection, schedule: Q07DX002 (ip), vehicle: Klucel (hydroxypropylcellulose) (HPC), higher = larger tumour",46 % of control
COc1cc(Cc2nccc3cc(OC)c(OC)cc23)c(C(C)=O)cc1OC,T/C,"endpoint: median tumor weight (est.), dose: 12.5 mg/kg/injection, schedule: Q07DX002 (ip), vehicle: suspension in saline, higher = larger tumour",166 % of control
same,T/C,"endpoint: median tumor weight (est.), dose: 25.0 mg/kg/injection, schedule: Q07DX002 (ip), vehicle: suspension in saline, higher = larger tumour",108 % of control
same,T/C,"endpoint: median tumor weight (est.), dose: 50.0 mg/kg/injection, schedule: Q07DX002 (ip), vehicle: suspension in saline, higher = larger tumour",110 % of control
same,T/C,"endpoint: median tumor weight (est.), dose: 100.0 mg/kg/injection, schedule: Q07DX002 (ip), vehicle: suspension in saline, higher = larger tumour",69 % of control
O=C1C=C(C2OC(CO)C(O)C2O)C(=O)N1 (stereo not drawn),T/C,"endpoint: median tumor weight (est.), dose: 1.56 mg/kg/injection, schedule: Q07DX002 (ip), vehicle: saline, higher = larger tumour",66 % of control
same,T/C,"endpoint: median tumor weight (est.), dose: 3.12 mg/kg/injection, schedule: Q07DX002 (ip), vehicle: saline, higher = larger tumour",56 % of control
same,T/C,"endpoint: median tumor weight (est.), dose: 6.25 mg/kg/injection, schedule: Q07DX002 (ip), vehicle: saline, higher = larger tumour",70 % of control
same,T/C,"endpoint: median tumor weight (est.), dose: 12.5 mg/kg/injection, schedule: Q07DX002 (ip), vehicle: saline, higher = larger tumour",113 % of control
same,T/C,"endpoint: median tumor weight (est.), dose: 25.0 mg/kg/injection, schedule: Q07DX002 (ip), vehicle: saline, higher = larger tumour",83 % of control
Nc1nc(-c2ccccc2)c(Br)c(=O)[nH]1,T/C,"endpoint: median tumor weight (est.), dose: 200.0 mg/kg/injection, schedule: Q07DX002 (ip), vehicle: saline with Tween-80, higher = larger tumour",105 % of control
same,T/C,"endpoint: median tumor weight (est.), dose: 1600.0 mg/kg/injection, schedule: Q07DX002 (ip), vehicle: saline with Tween-80, higher = larger tumour",36 % of control and 43 % of control
O=C(O)CC(=O)O.[NH-]C1CCCCC1[NH-].[Pt+2] (stereo not drawn),T/C,"endpoint: median tumor weight (est.), dose: 12.5 mg/kg/injection, schedule: Q07DX002 (ip), vehicle: dextrose, higher = larger tumour",84 % of control
same,T/C,"endpoint: median tumor weight (est.), dose: 20.0 mg/kg/injection, schedule: Q07DX003 (ip), vehicle: dextrose, higher = larger tumour",120 % of control
same,T/C,"endpoint: median tumor weight (est.), dose: 25.0 mg/kg/injection, schedule: Q07DX002 (ip), vehicle: dextrose, higher = larger tumour",55 % of control and 64 % of control
same,T/C,"endpoint: median tumor weight (est.), dose: 40.0 mg/kg/injection, schedule: Q07DX003 (ip), vehicle: dextrose, higher = larger tumour",48 % of control
same,T/C,"endpoint: median tumor weight (est.), dose: 50.0 mg/kg/injection, schedule: Q07DX002 (ip), vehicle: dextrose, higher = larger tumour",12 % of control and 35 % of control
same,T/C,"endpoint: median tumor weight (est.), dose: 80.0 mg/kg/injection, schedule: Q07DX003 (ip), vehicle: dextrose, higher = larger tumour",9 % of control
COc1cccc2c1C(=O)c1c(O)c3c(c(O)c1C2=O)C[C@@](O)(C(=O)CO)C[C@@H]3OC1CC(N)CC(C)O1 (stereo partly drawn),T/C,"endpoint: median tumor weight (est.), dose: 0.75 mg/kg/injection, schedule: Q07DX002 (ip), vehicle: water, higher = larger tumour",93 % of control
same,T/C,"endpoint: median tumor weight (est.), dose: 1.5 mg/kg/injection, schedule: Q07DX002 (ip), vehicle: water, higher = larger tumour",110 % of control
same,T/C,"endpoint: median tumor weight (est.), dose: 3.0 mg/kg/injection, schedule: Q07DX002 (ip), vehicle: water, higher = larger tumour",25 % of control
O=c1n[n+]([O-])ccn1C1OC(CO)C(O)C1O (stereo not drawn),T/C,"endpoint: median tumor weight (est.), dose: 100.0 mg/kg/injection, schedule: Q07DX002 (ip), vehicle: saline, higher = larger tumour",160 % of control
same,T/C,"endpoint: median tumor weight (est.), dose: 200.0 mg/kg/injection, schedule: Q07DX002 (ip), vehicle: saline, higher = larger tumour",117 % of control
same,T/C,"endpoint: median tumor weight (est.), dose: 600.0 mg/kg/injection, schedule: Q07DX002 (ip), vehicle: saline, higher = larger tumour",73 % of control
